Where “and” joins values, the source holds several entries; their conditions need not be identical. Identical values can stand only once. Like-named read-outs stand apart in the source and are kept apart here.
How the values were obtained:
MHV [1] = system: MHV
MHV [2] = type: cell-based, mouse hepatitis virus (MHV); conditions: RTB 0 uM

COc1ccc(N)cn1 [5-amino-2 methoxypyridine]
cell viability, Figures S9A, B, D-F (17Cl-1 cells; concentration 0.01): 100 | cell viability, Figures S9A, B, D-F (17Cl-1 cells; concentration 0.03): 100 | cell viability, Figures S9A, B, D-F (17Cl-1 cells; concentration 0.1): 100 | cell viability, Figures S9A, B, D-F (17Cl-1 cells; concentration 0.3): 100 | cell viability, Figures S9A, B, D-F (17Cl-1 cells; concentration 1): 100 | cell viability, Figures S9A, B, D-F (17Cl-1 cells; concentration 3): 100 | cell viability, Figures S9A, B, D-F (17Cl-1 cells; concentration 10): 100 | cell viability, Figures S9A, B, D-F (17Cl-1 cells; concentration 25): 103.896 | viability of infected cells (rescue of cytopathic effect), Figures S9G-L (MHV [1]; concentration 10): 50.187 and 47.1573 and 49.7662 | viability of infected cells (rescue of cytopathic effect), Figures S9G-L (MHV [1]; concentration 30): 52.4593 and 51.6738 and 47.1012 | viability of infected cells (rescue of cytopathic effect), Figures S9G-L (MHV [1]; concentration 100): 53.2448 and 47.1573 and 49.2052 | viability of infected cells (rescue of cytopathic effect), Figures S9G-L (MHV [1]; concentration 300): 49.4576 and 49.4296 and 47.5781 | viability of infected cells (rescue of cytopathic effect), Figures S9G-L (MHV [1]; concentration 1000): 50.0187 and 48.055 and 47.0451 | viability of infected cells (rescue of cytopathic effect), Figures S9G-L (MHV [1]; concentration 3000): 52.3191 and 51.9824 and 49.121 | viability of infected cells (rescue of cytopathic effect), Figures S9G-L (MHV [1]; concentration 10000): 58.7432 and 53.4412 and 53.7217 | viability of infected cells (rescue of cytopathic effect), Figures S9G-L (MHV [1]; concentration 25000): 59.3884 and 60.7069 and 59.0799

CC(C)(C)[C@H](NC(=O)C(F)(F)F)C(=O)N1C[C@H]2[C@@H]([C@H]1C(=O)N[C@H](C#N)C[C@@H]1CCNC1=O)C2(C)C [nirmatrelvir]
Inhibition, combination matrix (Figure S12D) (MHV [2]; nirmatrelvir 0.01 uM): -1.274 | Inhibition, combination matrix (Figure S12D) (MHV [2]; nirmatrelvir 0.03 uM): 3.148 | Inhibition, combination matrix (Figure S12D) (MHV [2]; nirmatrelvir 0.1 uM): 7.328 | Inhibition, combination matrix (Figure S12D) (MHV [2]; nirmatrelvir 0.3 uM): 49.1912 | Inhibition, combination matrix (Figure S12D) (MHV [2]; nirmatrelvir 1 uM): 73.8207 | Inhibition, combination matrix (Figure S12D) (MHV [2]; nirmatrelvir 3 uM): 76.6195 | Inhibition, combination matrix (Figure S12D) (MHV [2]; nirmatrelvir 10 uM): 79.1661 | Inhibition, combination matrix (Figure S12D) (MHV [2]; nirmatrelvir 25 uM): 76.9584
